{"source": "patent US8008354B2", "about": "“Death receptor sensitizing compounds and methods of use therefor” (Burnham Institute for Medical Research, priority 2006, dated 2011)", "key": {"caspase 8": {"tested_on": "caspase 8", "experiment": "Caspase activation in PPC-1 cells (FITC-labeled peptides, caspase 8 immunoblot)", "assay_type": "cell-based, human", "details": "60 μM", "description": "FIG. 15. 5809354 sensitizes cells to anoikis through a caspase 8 dependent mechanism. (A) PPC-1 cells (5×10^4) were cultured under suspension conditions overnight and then treated with 5809354 in the presence or absence of the pan-caspase inhibitor z-VAD-fink (100 μM). Thirty hours after incubation, anoikis was determined by flow cytometry to detect cell surface annexin V expression and PI uptake. Data represents the mean±SEM percent of viable cells or colonies compared to untreated controls. (B) PPC-1 cells (5×10^4) were cultured in suspension conditions overnight and then treated with 5809354 (60 μM). At increasing times after treatment, caspase activation was detected with FITC-labeled peptides that bind preferentially and irreversibly to caspase 3/7, 8, or 9. Caspase activation was monitored by flow cytometry to quantify the percentage of fluorescently labeled cells. […] At increasing times after incubation, total cellular protein was isolated and analyzed by SDS-PAGE immunoblotting using anti-caspase 8 and anti-actin antibodies. * indicates cleaved caspase 8. […] Thirty hours after incubation, apoptosis was measured by cell surface annexin V expression and PI uptake. […] Ten hours after incubation, cell viability was measured using the MTS assay. […] EGFP expression and nuclear morphology were analyzed by fluorescence microscopy. […]"}, "dsRed-PPC-1 cells": {"tested_on": "dsRed-PPC-1 cells", "experiment": "In vivo survival and growth of pre-treated dsRed-PPC-1 cells injected into SCID mice", "description": "FIG. 16. Decreases in cellular FLIP levels by siRNA diminishes the in vivo survival and growth of circulating prostate cancer cells. (A) Fluorescent dsRed-PPC-1 cells were transfected in culture with anti-FLIP siRNA (siFLIP, 25 nM) or control siRNA (siCtrl, 25 nM). Eight hours after transfection cells were harvested and 3.5×10^6 viable cells were injected into the tail veins of sublethally irradiated SCID mice. Five weeks after injection, or when mice became moribund, mice were sacrificed and their organs imaged using a fluorescent microscope (n=9). Representative images of tumor formation in the lung, bone, and liver are shown. (B) The total number and area of distant tumors from mice described above were quantified using image analysis software. Tumors were quantified from all five lobes of the lungs. Data points represent measurements from each mouse. Differences in the number and area of tumors are significant by the rank sum test. The bar represents the median of the population. Measurements were completed on unaltered images.\nFIG. 17. Decreases in cellular FLIP levels by 5809354 diminishes the in vivo survival and growth of circulating prostate cancer cells. (A) Fluorescent dsRed-PPC-1 cells were treated in culture with 5809354 (30 μM) or buffer control. Sixteen hours after treatment cells were harvested and 3.5×10^6 viable cells were injected into the tail veins of sublethally irradiated SCID mice. Five weeks after injection, or when mice became moribund, mice were sacrificed and their organs imaged using a fluorescent microscope (n=8). Representative images of tumor formation in the lung, bone, and liver are shown. (B) The number and area of distant tumors from mice described above were quantified using image analysis software. Tumors were quantified from all five lobes of the lungs. Data points represent measurements from each mouse. Differences in the number and area of tumors are significant by the rank sum test. […]\nIn vivo studies. […] 3.5×10^6 viable cells (as measured by trypan blue exclusion assay) were either injected via the tail vein or subcutaneously into the hind limbs into sublethally irradiated (3.5 Gy) SCID mice (10 mice per treatment). […] Red fluorescent tumors were detected via whole body imaging and whole organ imaging using a Leica MZ FLIII fluorescent stereomicroscope with a 100 W mercury lamp, a 560/40 excitation filter, and a 610 long-pass emission filter. Images were acquired using a Leica DC350 digital camera at 0.8× magnification and analyzed using Image Pro Plus 6.0 (MediaCybernetics). A single common threshold was applied to identify and measure fluorescence in each organ (Cairns et al., 2004). The number of fluorescent spots and the corresponding pixel area were recorded for each lung lobe. All quantification was performed on unmanipulated images. […]"}}, "data": [{"substance": "4-(4-chloro-2-methylphenoxy)-N-hydroxybutanamide [compound 5809354]", "values": [{"measurement": "sequence of caspase activation", "setting": "caspase 8; suspension conditions", "value": "Active caspase 8 was detected prior to activation of caspases 3/7 and 9"}, {"measurement": "caspase 8 activation by immunoblot", "setting": "caspase 8; suspension versus adherent conditions", "value": "preferentially activated caspase 8 in cells cultured under suspension but not adherent conditions"}, {"measurement": "Median survival", "setting": "dsRed-PPC-1 cells; cells treated in culture (5809354 30 μM 16 hours; FLIP siRNA 25 nM 8 hours), injected into tail veins of sublethally irradiated SCID mice", "value": 32, "unit": "days"}, {"measurement": "tumor formation in lung, bone, and liver", "setting": "dsRed-PPC-1 cells; intravenous injection of treated cells, five weeks or when moribund", "value": "decreased tumor formation"}, {"measurement": "median tumor number and median total tumor area within the lung", "setting": "dsRed-PPC-1 cells; intravenous injection of treated cells, image-based analysis", "value": "decreased"}, {"measurement": "tumor weight after subcutaneous injection", "setting": "dsRed-PPC-1 cells; subcutaneous injection of treated cells, 3 weeks (data not shown)", "value": "no difference"}]}]}
